Values after ≈ are worked out from the molar mass of the structure shown. “Also recorded” adds a separate entry of the source.
Key:
[1] = Fragment solubility assay by NMR; assay type: physicochemical; settings: NMR buffer (HEPES-NaOH) with 5% DMSO, aqueous with cosolvent or surfactant or cyclodextrin, kinetic from dmso stock; NMR buffer pH 7.5, 5% DMSO, 500 μM nominal
Description: Fragments were dispensed into a 384-well plate (250 nL of 100 mM stock in DMSO, 500 μM final concentration) using an ECHO acoustic dispenser. DMSO (2.25 μL) was added, then NMR buffer (47.5 μL, 25 mM HEPES-NaOH pH 7.5, 100 mM NaCl, 1 mM TCEP, 10% D2O). The plate was centrifuged (1 min, 1000 × g) before the solutions were transferred to 1.7 mm NMR tubes using a Gilson liquid handling system. ^1H NMR spectra were recorded with the DMSO and water signals dampened. 100 μM caffeine was used as an external standard to quantify the ligand signals.

TNKS2 ARC4 = molecular target: T1, TNKS2 ARC4 (Homo sapiens, UniProt Q9H2K2); assay: T2 relaxation-edited ligand-observed NMR assay; assay type: binding; settings: for T2 relaxation-edited: competition with 3BP2 TBM peptide: 3BP2 16-mer peptide 100 μM
T1 construct: The cell was filled with TNKS2 ARC4 (488–649); His6-GST; made in house; host or cells: E. coli
T1 sequence (Q9H2K2 488-649): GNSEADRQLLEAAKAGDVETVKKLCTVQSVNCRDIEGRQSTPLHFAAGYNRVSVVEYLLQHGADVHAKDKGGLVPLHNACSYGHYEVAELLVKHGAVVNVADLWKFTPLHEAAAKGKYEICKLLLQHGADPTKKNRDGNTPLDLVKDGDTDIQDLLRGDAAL
Description: We next sought close structural analogues of hit fragments 3 and 5 to gain early insights into structure-activity relationships (SAR) and binding modes of hit fragments. We initially tested the analogues using both relaxation-edited and waterLOGSY NMR assays against TNKS2 ARC4 (Table 1), followed by protein-observed NMR if binding was detected in both ligand-observed NMR experiments.
Fragments were dispensed in duplicate into a 384-well plate (250 nL, 100 mM stock in DMSO). Wells were backfilled with DMSO (2.25 μL). Tankyrase ARC protein (47.5 μL in 25 mM HEPES, pH 7.5, 100 mM NaCl, 2 mM TCEP, 10% D2O; 20 μM final protein concentration in the assay) was added to the ‘protein’ samples; buffer only (47.5 μL) was added to the ‘compound-only’ samples. Solutions were transferred to 1.7 mm NMR tubes using a Gilson liquid handling system. ^1H NMR spectra were recorded, with the DMSO and water signals dampened. A relaxation spin filter was applied at 400 ms[65]. Data were processed using Bruker Topspin 3.14. Lines were broadened with LB = 3.0, and the baseline was corrected between 6.0–10.0 ppm. The average integral for all peaks between 6.0–10.0 ppm was calculated, and the difference between compound-only and compound-plus-protein samples was compared. A reduction in signal integrals of ≥15% was classified as a hit. For competitive experiments, 3BP2 16-mer peptide (100 μM) was added, and the spectra were recorded and processed as above. The variability in signal reduction in the relaxation-edited experiment was previously determined as approximately ± 10% (Liu et al., unpublished observations).

TNKS2 ARC4 (488–649) = molecular target: T2, TNKS2 ARC4 (488–649) (Homo sapiens, UniProt Q9H2K2); assay: Protein-observed 1H-15N HSQC NMR titration (chemical shift perturbation); assay type: binding; settings: for 15N NMR / 15N HSQC chemical shift perturbations (CSPs): 15N-labelled TNKS2 ARC4
T2 construct: The cell was filled with TNKS2 ARC4 (488–649); His6-GST (cleaved yes); made in house; host or cells: E. coli BL21-CodonPlus (DE3)-RIL
T2 sequence (Q9H2K2 488-649): T1 sequence (Q9H2K2 488-649)
Source text: We next tested validated hits from both the DSF and NMR screens against TNKS2 ARC4 using protein-observed NMR. This included 16 compounds in total: 14 fragments identified by DSF and confirmed to bind TNKS2 ARC5 by both relaxation-edited and waterLOGSY methods and two unique fragments identified by NMR and confirmed to bind TNKS2 ARC4 by both ligand-observed NMR methods. We used the 3BP2 TBM peptide as a positive control. To directly identify fragment binding sites on the ARC, we performed a full backbone and partial side-chain assignment of TNKS2 ARC4, doubly labelled with ^15N and ^13C isotopes. The assignment details have been reported elsewhere. […] The different binding regimes may distinguish primary interaction hotspots that are engaged robustly when a peptide is first recruited (slow exchange) from secondary binding sites in the ARC that become occupied once primary binding hotspots are engaged; these may be more dynamic (fast exchange).
We then titrated compounds against ^15N-labelled TNKS2 ARC4, initially at protein:compound ratios of 1:1 and 1:3. […] We confirmed that the CSPs were not caused by pH changes during the titration by measuring the pH of the peptide and fragment stocks (at 3 mM) in assay buffer. Consistent with TBM-competitive binding of fragments 3 and 5, we identified several peaks that shifted in both fragment and 3BP2 TBM peptide titrations. […] However, the solubility of fragments 3 and 5 in assay buffer limited the maximum concentration achievable, and so complete saturation was not reached. This confounded affinity measurements and more extensive analyses of the fragment binding sites by protein-observed NMR.
^15N-labelled TNKS2 ARC4 (488–649) (300 μM final concentration; 5 μL of 3 mM stock) in NMR buffer (45 μL, 25 mM HEPES-NaOH pH 7.5, 100 mM NaCl, 1 mM TCEP, 10% D2O) was used as the baseline sample. Peptide titration samples (Table 6) were prepared by diluting the 16-mer 3BP2 peptide with NMR buffer (45 μL), then adding TNKS2 ARC4 (300 μM final concentration; 5 μL of 3 mM stock). Separate samples were prepared for each concentration point. Fragment titration samples (Table 7) were prepared by diluting fragments in NMR buffer (25 mM HEPES-NaOH pH 7.5, 100 mM NaCl, 1 mM TCEP, 10% D2O) and backfilling with DMSO to keep a constant DMSO concentration of 5%. ^15N-labelled TNKS2 ARC4 (300 μM final concentration; 5 μL of 3 mM stock) was added. Protein with 5% DMSO alone was used as the baseline. Separate samples were prepared for each concentration point. ^1H-^15N HSQC spectra were acquired over 3 h, with 64 scans and a spectrum width of 16.00 ppm for ^1H and 29.00 ppm for ^15N. The pH of the peptide and fragment stocks (at 3 mM) was confirmed to exclude the possibility that peak shifts were due to changes in pH during the titration.
Peaks that shifted were picked manually in each spectrum. The chemical shifts for each peak were measured and exported into Microsoft Excel, where the change in chemical shift from baseline was calculated for hydrogen and nitrogen shifts. The average Euclidean distance shifted (d) was then calculated using Eq. 2, weighting the different nuclei:2 d=√{1/2[δH2+(α.δN2)]},whereα=0.14
Values of d were plotted against ligand concentration in GraphPad Prism, and fitted with Eq. 3:3 Δδobs=Δδmax{([P]t+[L]t+Kd)−[([P]t+[L]t+Kd)^2−4[P]t[L]t]^1/2/2[P]t
Kd values were calculated for each peak that shifted individually. The mean of all shifting peaks was then calculated to give an apparent Kd value.

[2] = TNKS2 ARC4 300 μM, fragment up to 4800 μM, 5% DMSO

| Molecule | solubility [1] [µM] | binding to TNKS2 ARC4 by ligand-observed NMR, in words (TNKS2 ARC4; DSF hit validation) | 15N NMR / 15N HSQC chemical shift perturbations (CSPs) (TNKS2 ARC4 (488–649)) | NMR Kd (apparent, mean of shifting peaks) (TNKS2 ARC4 (488–649); [2]) | T2 relaxation-edited: competition with 3BP2 TBM peptide (TNKS2 ARC4) | TNKS2 ARC4 binding of analogues, SAR summary in words (TNKS2 ARC4; relaxation-edited and waterLOGSY NMR) | Kd (TNKS2 ARC4 (488–649); TNKS2 ARC4 300 μM, fragment up to 4800 μM, 5% DMSO, read-out: NMR Kd (apparent, mean of shifting peaks)) [µM] |
| --- | --- | --- | --- | --- | --- | --- | --- |
| O=C(NCc1ccco1)c1ccc(F)cc1 [compound 3] | 220 (≈ 48.2 µg/mL) | bound | significant CSPs; also recorded: substantial CSPs; also recorded: CSPs observed | no saturation |  |  |  |
| LPHLQRSPPDGQSFRSW [3BP2 16-mer peptide, 16-mer TBM peptide derived from 3BP2, W added for A280, N-terminus acetylated, C-terminus amide-capped; positive control, reference compound] |  |  | significant chemical shift perturbations |  |  |  |  |
| O=C(NCc1ccc(F)cc1)c1ccc2nccnc2c1 [compound 5] | 410 (≈ 115 µg/mL) |  | significant CSPs; also recorded: substantial CSPs; also recorded: CSPs observed | no saturation | competitive |  |  |
| O=C(NCc1ccco1)c1ccc2nccnc2c1 [compound 9] | 650 (≈ 165 µg/mL) |  | substantial CSPs; also recorded: significant CSPs |  | competitive | preserved binding | 1050 |
